Structures can show the parent of a compound that is named as a salt.
Biological target: T1, human V1b receptors (Homo sapiens, UniProt P47901)
T1 construct: expressed in transfected cells; host or cells: CHO-K1 (membrane preparation V1b-3H2)
T1 sequence (P47901 1-424): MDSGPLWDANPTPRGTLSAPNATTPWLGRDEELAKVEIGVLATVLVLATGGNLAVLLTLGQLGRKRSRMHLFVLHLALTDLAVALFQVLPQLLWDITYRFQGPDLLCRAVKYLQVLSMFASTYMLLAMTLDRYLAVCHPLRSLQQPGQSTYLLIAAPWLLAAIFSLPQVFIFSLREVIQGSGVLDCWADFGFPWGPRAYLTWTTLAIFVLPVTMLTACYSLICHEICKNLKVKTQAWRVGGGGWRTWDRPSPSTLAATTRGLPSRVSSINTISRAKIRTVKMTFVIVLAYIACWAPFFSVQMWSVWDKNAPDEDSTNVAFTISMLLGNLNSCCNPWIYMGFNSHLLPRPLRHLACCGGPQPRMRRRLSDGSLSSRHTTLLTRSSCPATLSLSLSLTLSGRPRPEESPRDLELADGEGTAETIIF
Test: Vasopressin V1b receptor binding assay
Details: membranes from CHO-K1 cells expressing human V1b receptors, displacement of 1.5 nM 3H-AVP; read-out: Binding affinity for the vasopressin V1b receptor
Procedure: Vasopressin V1b Receptor Binding Assay
The binding of the compounds of this invention to the vasopressin V1b receptor was determined with the following assay:
Compounds were dissolved in a concentration of 10^−2 M or 10^−3 M in DMSO. Further dilutions were performed with water.
The procedure for the binding assay was based on the method of Tahara et al. (Tahara A et al., Brit. J. Pharmacol. 125, 1463-1470 (1998)). Assays (0.250 ml) consisted of membranes (58 μg protein) from CHO-K1 cells permanently expressing human V1b receptors (preparation V1b-3H2, containing protease inhibitors, Roche complete Mini #1836170), 1.5 nM ^3H-AVP (8-Arg-vasopressin, NET 800) in incubation buffer (total binding) and different concentrations of test compound (displacement). Non-specific binding was defined with 10^−6 M AVP. Assays were performed in triplicate.
Incubation buffer: 50 mM Tris, 10 mM MgCl2, 0.1% BSA adjusted to pH 7.4 with HCl.
After incubation, 60 min at room temperature, bound and free radioligand was separated by filtration under vacuum through Whatman GF/B glass fibre mats using a Skatron cell harvester 7000.
Liquid scintillation counting was performed in beta-counters, Tricarb model 2000 or 2200CA (Packard). Dpm were calculated by a programme with standardisation using a standard quench series.
Evaluation of binding parameters was performed by non-linear regression analysis with SAS. The strategy of this program is similar to the program LIGAND described by Munson and Rodbard (Munson PJ and Rodbard D, Analytical Biochem 107, 220-239 (1980)).

COc1ncccc1C1(OC(=O)N2CCN(C3CCN(C)CC3)CC2)C(=O)N(S(=O)(=O)c2cc3ccccc3s2)c2ccc(Cl)cc21 (stereo not shown) [Example 172, 4-(1-Methyl-piperidin-4-yl)-piperazine-1-carboxylic acid 1-(benzo[b]thiophene-2-sulfonyl)-5-chloro-3-(2-methoxy-pyridin-3-yl)-2-oxo-2,3-dihydro-1H-indol-3-yl ester diacetate] and COc1ncccc1C1(OC(=O)N2CCN(C3CCN(C)CC3)CC2)C(=O)N(S(=O)(=O)c2csc3ccccc23)c2ccc(Cl)cc21 (stereo not shown) [Example 170, 4-(1-Methyl-piperidin-4-yl)-piperazine-1-carboxylic acid 1-(benzo[b]thiophene-3-sulfonyl)-5-chloro-3-(2-methoxy-pyridin-3-yl)-2-oxo-2,3-dihydro-1H-indol-3-yl ester diacetate] fall in the same range of Ki: 50 to 500 nM for the first, 50 to 500 nM for the second.

Compared with COc1ncccc1C1(OC(=O)N2CCN(C3CCN(C)CC3)CC2)C(=O)N(S(=O)(=O)c2cn(C)c(C)n2)c2ccc(Cl)cc21 (stereo not shown) [Example 166, 4-(1-Methyl-piperidin-4-yl)-piperazine-1-carboxylic acid 5-chloro-1-(1,2-dimethyl-1H-imidazole-4-sulfonyl)-3-(2-methoxy-pyridin-3-yl)-2-oxo-2,3-dihydro-1H-indol-3-yl ester diacetate], COc1ncccc1C1(OC(=O)N2CCN(C3CCN(C)CC3)CC2)C(=O)N(S(=O)(=O)c2ccc(C)s2)c2ccc(Cl)cc21 (stereo not shown) [Example 168, 4-(1-Methyl-piperidin-4-yl)-piperazine-1-carboxylic acid 5-chloro-3-(2-methoxy-pyridin-3-yl)-1-(5-methyl-thiophene-2-sulfonyl)-2-oxo-2,3-dihydro-1H-indol-3-yl ester diacetate] is lower in Ki: 50 to 500 nM for the first, < 50 nM for the second.

First: COc1ccc(S(=O)(=O)N2C(=O)C(OC(=O)N3CCN(C4CCN(C)CC4)CC3)(c3cccnc3OC)c3cc(Cl)ccc32)cc1 (stereo not shown) [Example 115, 4-(1-Methyl-piperidin-4-yl)-piperazine-1-carboxylic acid 5-chloro-1-(4-methoxy-benzenesulfonyl)-3-(2-methoxy-pyridin-3-yl)-2-oxo-2,3-dihydro-1H-indol-3-yl ester diacetate]
Second: COc1ncccc1C1(OC(=O)N2CCN(C3CCN(C)CC3)CC2)C(=O)N(S(=O)(=O)c2cc(C)sc2C)c2ccc(Cl)cc21 (stereo not shown) [Example 169, 4-(1-Methyl-piperidin-4-yl)-piperazine-1-carboxylic acid 5-chloro-1-(2,5-dimethyl-thiophene-3-sulfonyl)-3-(2-methoxy-pyridin-3-yl)-2-oxo-2,3-dihydro-1H-indol-3-yl ester diacetate]
The Ki of the first is lower: < 50 nM for the first, 50 to 500 nM for the second. The first binds more tightly here.

COc1ccc(S(=O)(=O)N2C(=O)C(c3cccnc3OC)(N3C[C@H](O)C[C@H]3C(=O)N(C)C)c3cc(OC(F)(F)F)ccc32)c(OC)c1 (single isomer, unassigned) [Example 245] and CCOc1ncccc1C1(N2C[C@H](O)C[C@H]2C(=O)N(C)C)C(=O)N(S(=O)(=O)c2ccc(OC)cc2OC)c2ccc(Cl)cc21 (single isomer, unassigned) [Example 239] cannot be ordered by Ki: < 50 nM for the first, < 50 nM for the second.

COc1ccccc1C1(N2C[C@H](O)C[C@H]2C(=O)N(C)C)C(=O)N(S(=O)(=O)c2ccc(Cl)cn2)c2ccc(Cl)cc21 (single isomer, unassigned) [Example 52] and COc1ccccc1C1(N2C[C@H](O)C[C@H]2C(=O)N(C)C)C(=O)N(S(=O)(=O)c2cc(C)ccn2)c2ccc(Cl)cc21 (single isomer, unassigned) [Example 252] cannot be ordered by Ki: < 50 nM for the first, < 50 nM for the second.

COc1ccc(S(=O)(=O)N2C(=O)C(c3cccnc3OC)(N3CCC[C@H]3C(=O)N(C)C)c3cc(Cl)ccc32)c(OC)c1 (single isomer, unassigned) [Example 227] and COc1ccc(S(=O)(=O)N2C(=O)C(c3ncccc3C)(N3C[C@H](O)C[C@H]3C(=O)N(C)C)c3cc(Cl)ccc32)c(OC)c1 (single isomer, unassigned) [Example 222] cannot be ordered by Ki: < 50 nM for the first, < 50 nM for the second.

Going from COc1ccc(S(=O)(=O)N2C(=O)C(OC(=O)Nc3ccc(Cl)cc3)(c3sccc3C)c3cc(Cl)ccc32)c(OC)c1 (stereo not shown) [Example 63, (4-Chloro-phenyl)-carbamic acid 5-chloro-1-(2,4-dimethoxy-benzenesulfonyl)-3-(3-methyl-thiophen-2-yl)-2-oxo-2,3-dihydro-1H-indol-3-ylester] to COc1ccc(S(=O)(=O)N2C(=O)C(N[C@@H](C)C(=O)N(C)C)(c3cccnc3OC)c3cc(Cl)ccc32)c(OC)c1 (single isomer, unassigned) [Example 221], the Ki falls from > 500 nM to < 50 nM.

COc1ccc(S(=O)(=O)N2C(=O)C(c3ccncc3OC)(N3C[C@H](O)C[C@H]3C(=O)N(C)C)c3cc(Cl)ccc32)c(OC)c1 (single isomer, unassigned) [Example 234] and COc1ccc(S(=O)(=O)N2C(=O)C(c3cnccc3OC)(N3C[C@H](O)C[C@H]3C(=O)N(C)C)c3cc(Cl)ccc32)c(OC)c1 (single isomer, unassigned) [Example 10] cannot be ordered by Ki: < 50 nM for the first, < 50 nM for the second.

COc1ncccc1C1(N2C[C@H](O)C[C@H]2C(=O)N(C)C)C(=O)N(S(=O)(=O)c2cccs2)c2ccc(Cl)cc21 (single isomer, unassigned) [Example 270] and COc1ccc(S(=O)(=O)N2C(=O)C(c3cccnc3OC)(N3C[C@H](O)C[C@H]3C(=O)N(C)C)c3cc(Cl)ccc32)cc1 (single isomer, unassigned) [Example 240] cannot be ordered by Ki: < 50 nM for the first, < 50 nM for the second.

COc1ccc2c(c1)C(OC(=O)N1CCN(C3CCN(C)CC3)CC1)(c1ccccc1OC)C(=O)N2S(=O)(=O)c1cccs1 (stereo not shown) [Example 126, 4-(1-Methyl-piperidin-4-yl)-piperazine-1-carboxylic acid 5-methoxy-3-(2-methoxy-phenyl)-2-oxo-1-(thiophene-2-sulfonyl)-2,3-dihydro-1H-indol-3-yl ester dihydrochloride] and COc1ccccc1C1(OC(=O)N2CCN(C3CCN(C)CC3)CC2)C(=O)N(S(=O)(=O)c2cccs2)c2ccc(F)cc21 (stereo not shown) [Example 136, 4-(1-Methyl-piperidin-4-yl)-piperazine-1-carboxylic acid 5-fluoro-3-(2-methoxy-phenyl)-2-oxo-1-(thiophene-2-sulfonyl)-2,3-dihydro-1H-indol-3-yl ester] cannot be ordered by Ki: < 50 nM for the first, < 50 nM for the second.

Compared with COc1ccccc1C1(N2C[C@H](O)C[C@H]2C(=O)N(C)C)C(=O)N(S(=O)(=O)c2cc(Br)c(Cl)s2)c2ccc(Cl)cc21 (stereo partly drawn) [Example 33, (2S,4R)-1-[1-(4-Bromo-5-chloro-thiophene-2-sulfonyl)-5-chloro-3-(2-methoxy-phenyl)-2-oxo-2,3-dihydro-1H-indol-3-yl]-4-hydroxy-pyrrolidine-2-carboxylic acid dimethylamide trifluoroacetate], COc1ccccc1C1(OC(=O)N2CCN(C3CCN(C)CC3)CC2)C(=O)N(S(=O)(=O)c2cccc3cccnc23)c2ccc(Cl)cc21 (stereo not shown) [Example 75, 4-(1-Methyl-piperidin-4-yl)-piperazine-1-carboxylic acid 5-chloro-3-(2-methoxy-phenyl)-2-oxo-1-(quinoline-8-sulfonyl)-2,3-dihydro-1H-indol-3-yl ester bismethanesulfonate] is lower in Ki: 50 to 500 nM for the first, < 50 nM for the second.
